Converted amounts (≈) assume the structure as drawn. The source made the active and inactive calls. The rule behind the calls is not given here.
Key:
BACH1/MafK = BACH1/MafK (Homo sapiens, UniProt O14867+O60675); test: Inhibition of Bach1-Mafk interaction (unknown origin) by luciferase reporter gene based enzyme fragment complementation assay; format: protein assay
Keap1/Nrf2 = Keap1/Nrf2 (Homo sapiens, UniProt Q14145+Q16236); test: Binding affinity to FLAG/His-tagged Keap1 (unknown origin)/biotinylated full-length FLAG/His/Tev/Avi-tagged NRF2 (unknown origin) expressed in baculovirus infected Sf9 insect cells measured after 1 hr by TR-FRET assay
[1] = molecular target: Kelch-like ECH-associated protein 1 (Homo sapiens) (UniProt Q14145); test: Binding affinity to wild-type human N-terminal His6-tagged Keap1 (35 to 178 residues) expressed in baculovirus infected Sf9 insect cells assessed as cysteine-compound adduct formation at 15-fold molar excess measured after 1 hr by RP-LC/MS/MS analysis
[2] = Drug metabolism in rat assessed as (2R)-2-acetamido-3-[3-[[2-(dimethylamino)-3,4-dioxo-cyclobuten-1-yl]-methyl-amino]propylcarbamothioylsulfanyl]propanoic acid formation at 2 mg/kg, po; format: ADME, organism-based; details: in vivo
[3] = Binding affinity to FLAG/His-tagged Keap1 (unknown origin)/biotinylated full-length FLAG/His/Tev/Avi-tagged Cul3 (unknown origin) expressed in baculovirus infected Sf9 insect cells measured after 1 hr by TR-FRET assay; set-up: species or system Homo sapiens
Mus musculus [4] = test: (§1) Antioxidant activity in po dosed C57BL/6J mouse model of cigarette smoking-induced oxidative stress assessed as inhibition of neutrophil infiltration dosed 24 hrs prior to cigarette smoking followed by qd dosing with cigarette smoking for 3 days by Wright-Giemsa staining based hemocytometry; format: functional, organism-based
[5] = Stability of the compound at 23 degC using crystalline solid sample measured >3 years by 1H-NMR analysis; format: physicochemical
Mus musculus [6] = test: as §1, with “in” for “in po dosed”, “infiltration at 0.1 to 100 umol/kg, po” for “infiltration”; format: functional, organism-based
Mus musculus [7] = test: as §1, with “in” for “in po dosed”, “mononuclear cell” for “neutrophil”, “infiltration at 0.1 to 100 umol/kg, po” for “infiltration”; format: functional, organism-based
[8] = Apparent permeability across basolateral to apical side in MDCK-MDR1; format: ADME, cell-based, Canis lupus familiaris; details: dog
[9] = Stability of the compound at 23 degC using crystalline solid sample measured >3 years by LC/MS analysis; format: physicochemical
Homo sapiens [10] = species: Homo sapiens; test: Activation of Keap1/Cul3/Nrf2 in NHBE cells assessed as induction of HO-1 gene expression at 10 uM after 24 hrs by RT-PCR analysis relative to SFN; format: cell-based
[11] = Drug metabolism in rat assessed as (2S)-2-amino-5-[[(1R)-2-(carboxymethylamino)-1-[3-[[2-(dimethylamino)-3,4-dioxo-cyclobuten-1-yl]-methyl-amino]propylcarbamothioylsulfanylmethyl]-2-oxo-ethyl]amino]-5-oxo-pentanoic acid formation at 2 mg/kg, po; format: ADME, organism-based; details: in vivo
[12] = Solubility of the compound in FaSSIF at pH 6.5 using solid sample; format: physicochemical
[13] = Kinetic solubility of the compound at pH 7.4 by CLND method; format: physicochemical; details: buffer, read-out: Kinetic_solubility
[14] = test system: Kelch-like ECH-associated protein 1 (Homo sapiens), Q14145 [C151S]; test: Binding affinity to human N-terminal His6-tagged Keap1 C151S mutant (35 to 182 residues) expressed in baculovirus infected Sf9 insect cells assessed as cysteine-compound adduct formation at 15-fold molar excess measured after 1 hr by RP-LC/MS/MS analysis
[15] = Lipophilicity, log D of the compound at pH 7.4 by chromatographic method; format: physicochemical; details: buffer
[16] = Apparent permeability across apical to basolateral side in MDCK-MDR1; format: ADME, cell-based, Canis lupus familiaris; details: dog
Mus musculus [17] = test: as §1, with “in” for “in po dosed”, “total cell” for “neutrophil”, “infiltration at 0.1 to 100 umol/kg, po” for “infiltration”; format: functional, organism-based
Homo sapiens [18] = species: Homo sapiens; test: (§2) Activation of Keap1/Cul3/Nrf2 in human BEAS2B cells assessed as increase in NQO1 levels measured after 48 hrs; format: cell-based
[19] = as §2; format: cell-based; details: BEAS-2B

Sequence of Keap1/Nrf2 (Q16236 whole entry, the tested form may be a part): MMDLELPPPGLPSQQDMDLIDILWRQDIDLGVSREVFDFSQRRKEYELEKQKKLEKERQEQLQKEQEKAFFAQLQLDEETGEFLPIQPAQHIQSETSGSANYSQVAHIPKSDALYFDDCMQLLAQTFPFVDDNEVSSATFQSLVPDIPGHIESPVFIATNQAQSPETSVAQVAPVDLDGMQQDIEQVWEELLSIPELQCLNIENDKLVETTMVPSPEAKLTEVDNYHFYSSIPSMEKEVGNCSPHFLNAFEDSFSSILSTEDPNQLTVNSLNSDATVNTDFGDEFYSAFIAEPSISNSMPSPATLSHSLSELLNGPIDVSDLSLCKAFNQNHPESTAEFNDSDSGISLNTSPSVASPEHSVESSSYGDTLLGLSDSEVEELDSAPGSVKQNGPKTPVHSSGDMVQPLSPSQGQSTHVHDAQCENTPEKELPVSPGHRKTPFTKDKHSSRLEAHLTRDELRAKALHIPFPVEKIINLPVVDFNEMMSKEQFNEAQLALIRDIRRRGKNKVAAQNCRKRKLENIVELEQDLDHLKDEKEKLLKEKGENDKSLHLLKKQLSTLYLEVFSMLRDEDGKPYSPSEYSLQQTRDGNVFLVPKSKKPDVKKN
Sequence of Keap1/Nrf2 (Q14145 whole entry, the tested form may be a part): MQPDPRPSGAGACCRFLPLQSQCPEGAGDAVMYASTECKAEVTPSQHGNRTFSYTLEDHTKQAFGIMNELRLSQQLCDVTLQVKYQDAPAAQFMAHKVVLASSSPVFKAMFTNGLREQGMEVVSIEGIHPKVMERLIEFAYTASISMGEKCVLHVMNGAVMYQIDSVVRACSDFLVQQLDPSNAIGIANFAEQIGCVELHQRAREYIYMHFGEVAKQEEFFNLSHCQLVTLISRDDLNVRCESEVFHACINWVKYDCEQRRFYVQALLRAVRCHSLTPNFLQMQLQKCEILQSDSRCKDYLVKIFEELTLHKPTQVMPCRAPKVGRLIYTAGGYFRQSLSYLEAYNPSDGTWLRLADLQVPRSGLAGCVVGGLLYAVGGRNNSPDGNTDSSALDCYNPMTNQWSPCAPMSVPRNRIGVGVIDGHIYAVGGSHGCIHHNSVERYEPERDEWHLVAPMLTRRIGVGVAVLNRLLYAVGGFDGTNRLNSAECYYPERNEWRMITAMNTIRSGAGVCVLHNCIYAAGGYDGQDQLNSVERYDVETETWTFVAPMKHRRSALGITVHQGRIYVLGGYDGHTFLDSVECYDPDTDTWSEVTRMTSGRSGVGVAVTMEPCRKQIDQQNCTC
Sequence of Kelch-like ECH-associated protein 1 (Homo sapiens) (Q14145 whole entry, the tested form may be a part): as above
Sequence of Kelch-like ECH-associated protein 1 (Homo sapiens), Q14145 [C151S] (Q14145 whole entry C151S, the tested form may be a part): as the sequence (Q14145 whole entry, the tested form may be a part) above, with C151S counted along it
Sequence of BACH1/MafK (O60675 whole entry, the tested form may be a part): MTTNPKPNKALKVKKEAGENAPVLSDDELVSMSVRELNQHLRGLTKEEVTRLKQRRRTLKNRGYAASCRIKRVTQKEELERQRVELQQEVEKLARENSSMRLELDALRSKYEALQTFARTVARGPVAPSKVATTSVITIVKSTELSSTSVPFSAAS
Sequence of BACH1/MafK (O14867 whole entry, the tested form may be a part): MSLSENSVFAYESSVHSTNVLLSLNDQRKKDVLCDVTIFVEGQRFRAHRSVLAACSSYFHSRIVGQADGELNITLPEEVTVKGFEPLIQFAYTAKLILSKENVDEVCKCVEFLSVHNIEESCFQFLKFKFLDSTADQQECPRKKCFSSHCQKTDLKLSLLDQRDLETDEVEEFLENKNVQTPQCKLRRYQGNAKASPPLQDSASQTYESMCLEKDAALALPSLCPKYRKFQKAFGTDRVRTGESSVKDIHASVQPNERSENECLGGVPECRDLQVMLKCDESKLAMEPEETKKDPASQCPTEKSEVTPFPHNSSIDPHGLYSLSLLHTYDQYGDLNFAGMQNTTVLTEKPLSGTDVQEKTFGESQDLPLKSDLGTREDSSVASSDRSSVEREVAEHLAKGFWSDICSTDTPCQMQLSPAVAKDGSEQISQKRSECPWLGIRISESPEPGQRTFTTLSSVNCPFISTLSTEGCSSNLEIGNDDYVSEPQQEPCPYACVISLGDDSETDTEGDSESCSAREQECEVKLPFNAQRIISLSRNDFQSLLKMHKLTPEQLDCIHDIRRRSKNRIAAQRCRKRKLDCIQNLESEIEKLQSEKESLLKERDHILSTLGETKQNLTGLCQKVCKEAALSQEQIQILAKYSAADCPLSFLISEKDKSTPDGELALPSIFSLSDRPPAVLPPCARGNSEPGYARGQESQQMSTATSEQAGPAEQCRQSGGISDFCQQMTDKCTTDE

| SMILES | IC50 (Keap1/Nrf2) [µM] | pIC50 [3] | fold change (FC) (Homo sapiens [10]) | solubility kinetic [13] [µM] | chromatographic logD [15] | other results |
| --- | --- | --- | --- | --- | --- | --- |
| CN(C)c1c(N(C)CCCN=C=S)c(=O)c1=O | > 100 | 4.3 | 24.9 to 25 | ≥ 394 | 2.14 to 2.39 | IC50 (BACH1/MafK): 3.16 µM; Activity [1]: Active; Drug metabolism [2]: Metabolite_Detected; inhibition (Mus musculus [4]): Dose-dependent effect; Stability [5]: Stable; inhibition (Mus musculus [6]): Active; inhibition (Mus musculus [7]): Active; Papp B→A [8]: 7.67 ×10⁻⁶ cm/s; Stability [9]: Stable; Drug metabolism [11]: Metabolite_Detected; solubility thermodynamic [12]: 8000 µg/mL (≈ 31.6 mM); Activity [14]: Active; Papp A→B [16]: 12.5 ×10⁻⁶ cm/s; inhibition (Mus musculus [17]): Active; Activity (Homo sapiens [18]): Dose-dependent effect; EC50 [19]: 1.58 to 1.66 µM |
| CC(=O)N[C@@H](CSC(=S)NCCCC[S+](C)[O-])C(=O)O (some centres not stated) | > 100 | < 4 | 5.8 | ≥ 357 | -0.67 | EC50 [19]: 1.58 µM |
| C[S+]([O-])CCCCNC(=S)SC[C@H](NC(=O)CC[C@H](N)C(=O)O)C(=O)NCC(=O)O (some centres not stated) | > 100 | < 4 | 5.8 | ≥ 290 | -0.75 | EC50 [19]: 1.58 µM |
| CC(=O)N[C@@H](CSC(=S)NCCCN(C)c1c(N(C)C)c(=O)c1=O)C(=O)O |  |  |  |  |  | EC50 [19]: 1.58 µM |
| COC(=O)[C@H](CSC(=S)NCCCC[S+](C)[O-])NC(C)=O (some centres not stated) | > 100 | < 4 | 0.85 | ≥ 510 | 1.04 |  |
| CN(C)c1c(N(C)CCCNC(=S)SC[C@H](NC(=O)CC[C@H](N)C(=O)O)C(=O)NCC(=O)O)c(=O)c1=O |  |  |  |  |  | EC50 [19]: 1.58 µM |
| CC(=O)CCCCN=C=S | > 100 | 4.1 | 0.9 | 206 (≈ 32.4 µg/mL) | 4.21 |  |
| C[S+]([O-])CCCCNC(=S)SCCSC(=S)NCCCC[S+](C)[O-] (configuration not stated) | > 100 | 4.3 | 0.74 | ≥ 425 | 1.9 |  |
| CN1CCC(SC(=S)NCCCCNC(=O)NCc2ccccc2)CC1 | 20 | 4.9 | 14.5 | ≥ 451 | 2.4 |  |
| CC(C)(C)OC(=O)N1CCC(SC(=S)NCCCCNC(=O)NCc2ccccc2)CC1 | 7.94 | 4.7 | 18.6 | 34 (≈ 16.3 µg/mL) | 6.05 |  |
| CN1CCC(SC(=S)NCCCCNC(=O)Nc2ccc3nccnc3c2)CC1 | 10 | 5.1 | 102 | ≥ 400 | 1.52 |  |
| CN1CCC(SC(=S)NCCCCNC(=O)Nc2ccncc2)CC1 | 20 | 4.9 | 29.8 | ≥ 350 | 1.02 |  |
| CC(C)(C)OC(=O)N1CCC(SC(=O)NCCCCN=C=S)CC1 | 12.6 | 5.1 | 4.01 | 77 (≈ 28.8 µg/mL) | 6.72 |  |
| O=C(NCCCCN=C=S)c1ccno1 | 63.1 | 4.2 | 2.65 | ≥ 473 | 3.27 |  |
| CN(C)CC[S+]([O-])CCCCN=C=S (configuration not stated) | > 100 | < 4 | 0.49 | ≥ 219 | 1.47 |  |
| CN1CCC(SC(=S)NCCCCNC(=O)OCc2ccccn2)CC1 | 39.8 | 4.6 | 11.4 | ≥ 385 | 1.83 |  |
| CNC(=O)NCCCCN=C=S | 50.1 | 4.1 | 1.04 | ≥ 436 | 2 |  |
| COC(=O)[C@]12CCC(C)(C)C[C@H]1[C@H]1C(=O)C=C3[C@@]4(C)C=C(C#N)C(=O)C(C)(C)[C@@H]4CC[C@@]3(C)[C@]1(C)CC2 [BARDOXOLONE METHYL] |  |  |  |  |  | EC50 [19]: 0.00871 µM |
| C[S+]([O-])CCCCN=C=S (racemic) [SULFORAPHANE] |  | < 4 |  | 271 (≈ 48 µg/mL) |  | IC50 (BACH1/MafK): 15.8 µM; Activity [1]: Active; Activity [14]: Active; EC50 [19]: 1.58 to 2.09 µM |
| O=C(NCCCCN=C=S)OCc1ccccc1Cl | 5.01 | 5.2 | 3.21 | 73 (≈ 21.8 µg/mL) | 6.35 |  |
| CN1CCC(SC(=S)NCCCCNC(=O)Oc2ccccc2)CC1 | 25.1 | 4.8 | 5.52 | ≥ 410 | 0.9 |  |
| CN1CCC(SC(=S)NCCCCNC(=O)CC2CCCC2)CC1 | 50.1 | 4.5 | 31.3 | ≥ 256 | 3 |  |
| C[S+]([O-])CCCCNC(=S)SCCCO (configuration not stated) | 25.1 | < 4 | 0.24 | ≥ 467 | 0.68 |  |
| C[S+]([O-])CCCCNC(=S)SC1CCN(C(=O)OC(C)(C)C)CC1 (configuration not stated) | > 100 | 4.3 | 0.48 | 382 (≈ 151 µg/mL) | 4.23 |  |
| CN1CCC(SC(=S)NCCCCNC(=O)NC2CCCC2)CC1 | 39.8 | 4.5 | 19.3 | ≥ 245 | 2.33 |  |
| O=C(CCCCN=C=S)NCc1ccccc1 | 20 | 4.7 | 28 | ≥ 418 | 4.59 |  |
| CNC(=O)NCCCCNC(=S)SC1CCN(C(=O)OC(C)(C)C)CC1 | > 100 | < 4 | 0.59 | ≥ 377 | 4.58 |  |
| Cc1ccccc1S(=O)(=O)CCCCN=C=S | 31.6 | 5 | 0.67 | 261 (≈ 70.3 µg/mL) | 5.52 |  |
| [O-][S+](CCCCN=C=S)c1ccccc1 (configuration not stated) | 50.1 | 4.3 | 5.99 | 213 (≈ 51 µg/mL) | 4.11 |  |
